# What was measured:
# resting platelets = assay: Platelet aggregation induced by peptide in resting washed platelets (activation); assay type: cell-based, human (healthy volunteers); conditions: for Activation, 5μM / Activation, 20μM: S3 Table, n=3; for Activation, 5μM: peptide 5 μM; for Activation, 5μM / Activation, 20μM / Activation, donor 14 06 13 / Activation, donor 20 08 13 / Activation: unit assumed; for Activation, 20μM: peptide 20 μM; for Activation, donor 14 06 13: replicate 14_06_13; for Activation, donor 14 06 13 / Activation, donor 18_06_13 / Activation, donor 20_06_13 / Activation, donor 20 08 13 / Activation, donor 22_08_13_DONOR1 / Activation, donor 22_08_13_DONOR2: SDC4 peptides and controls, 20 μM; for Activation, donor 18_06_13: replicate 18_06_13; for Activation, donor 18_06_13 / Activation, donor 20_06_13: in % (unit assumed); for Activation, donor 20_06_13: replicate 20_06_13; for Activation, donor 20 08 13: replicate 20_08_13; for Activation, donor 22_08_13_DONOR1: replicate 22_08_13_DONOR1; for Activation, donor 22_08_13_DONOR2: replicate 22_08_13_DONOR2; for Activation: platelet aggregation in resting platelets after 6 minutes incubation with peptide, pal-peptides 20 μM, tat-peptides 50 μM, optical density, aggregometer, mean, n>=3; for Aggregation before TRAP activation, donor a: replicate donor a; for Aggregation before TRAP activation, donor a / Aggregation before TRAP activation, donor b / Aggregation before TRAP activation, donor c / Aggregation before TRAP activation, donor d / Aggregation before TRAP activation, donor e / Aggregation before TRAP activation, donor h / Aggregation before TRAP activation, donor i / Aggregation before TRAP activation, donor j: pal 20 μM, tat 50 μM; for Aggregation before TRAP activation, donor b: replicate donor b; for Aggregation before TRAP activation, donor c: replicate donor c; for Aggregation before TRAP activation, donor d: replicate donor d; for Aggregation before TRAP activation, donor e: replicate donor e; for Aggregation before TRAP activation, donor h: replicate donor h; for Aggregation before TRAP activation, donor i: replicate donor i; for Aggregation before TRAP activation, donor j: replicate donor j
# In short: (§1)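 Aggregation was read by optical density at 37°C under 1100 rpm stirring. Samples were 3x10^5/μl washed human platelets, rested 45 min and supplemented with 1.8 mM calcium chloride. Peptide went in at 2 min, followed 6 min later by TRAP at an experiment-dependent concentration, with 7 min further recording.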
# TRAP-activated platelets = assay: Inhibition of TRAP-induced platelet aggregation after pre-incubation with peptide; assay type: cell-based, human (healthy volunteers); conditions: for Inhibition, donor 14_06_13: replicate 14_06_13; for Inhibition, donor 18_06_13: replicate 18_06_13; for Inhibition, donor 20_06_13: replicate 20_06_13; for Inhibition, donor 20_08_13: replicate 20_08_13; for Aggregation after TRAP activation, donor a: replicate donor a; for Aggregation after TRAP activation, donor a / Aggregation after TRAP activation, donor b / Aggregation after TRAP activation, donor c / Aggregation after TRAP activation, donor d / Aggregation after TRAP activation, donor e / Aggregation after TRAP activation, donor h / Aggregation after TRAP activation, donor i / Aggregation after TRAP activation, donor j: pal 20 μM, tat 50 μM; for Aggregation after TRAP activation, donor b: replicate donor b; for Aggregation after TRAP activation, donor c: replicate donor c; for Aggregation after TRAP activation, donor d: replicate donor d; for Aggregation after TRAP activation, donor e: replicate donor e; for Aggregation after TRAP activation, donor h: replicate donor h; for Aggregation after TRAP activation, donor i: replicate donor i; for Aggregation after TRAP activation, donor j: replicate donor j
# In short: as §1
# [1] = S3 Table, peptide 5 μM, aggregation after TRAP, n=3
# [2] = S3 Table, peptide 20 μM, aggregation after TRAP, n=3
# [3] = replicate 22_08_13_DONOR1, peptide 20 μM, TRAP 4 μM
# [4] = replicate 22_08_13_DONOR2, peptide 20 μM, TRAP 4 μM
# [5] = platelet aggregation induced by 4 μM TRAP in platelets pre-incubated with peptide (low value = inhibition), pal-peptides 20 μM, tat-peptides 50 μM, mean, n>=3
substance,measurement,setting,value
"Pal-KKAPTNEFYA [Pal-KK-SDC4-tail, palmitylated, slightly extended SDC4 tail peptide …]","Activation, 5μM",resting platelets,2%
same,"Activation, 20μM",resting platelets,1%
same,"Activation, donor 14 06 13",resting platelets,2%
same,"Activation, donor 18_06_13",resting platelets,-1
same,"Activation, donor 20_06_13",resting platelets,2
same,"Activation, donor 20 08 13",resting platelets,3%
same,"Activation, donor 22_08_13_DONOR1",resting platelets,1
same,"Activation, donor 22_08_13_DONOR2",resting platelets,1
same,"Summary of effects of SDC4-derived palmitylated peptides and scrambled controls, 20μM","TRAP-activated platelets; S2 Table B / S2 Fig, 20 μM, activation of resting platelets and inhibition of aggregation induced by 4 μM TRAP, in words",Inhibitor
same,Platelet aggregation remaining after TRAP (low = inhibition),TRAP-activated platelets; [1],63
same,Platelet aggregation remaining after TRAP (low = inhibition),TRAP-activated platelets; [2],36
same,"Aggregation after TRAP, peptide alone 1x (A 1x / B 1x)","TRAP-activated platelets; TRAP 2 μM after 6 minutes pre-incubation, 4 μM pal-peptides, 10 μM tat-peptides, mean n = 3",64.67
same,"Aggregation after TRAP, peptide alone 2x (A 2x / B 2x)","TRAP-activated platelets; TRAP 2 μM after 6 minutes pre-incubation, double concentration of 4 μM (pal) / 10 μM (tat), mean n = 3",3
same,"Inhibition, donor 14_06_13","TRAP-activated platelets; peptide 20 μM, TRAP 4 μM",65
same,"Inhibition, donor 18_06_13","TRAP-activated platelets; peptide 20 μM, TRAP 4 μM",64
same,"Inhibition, donor 20_06_13","TRAP-activated platelets; peptide 20 μM, TRAP 4 μM",71
same,"Inhibition, donor 20_08_13","TRAP-activated platelets; peptide 20 μM, TRAP 4 μM",4
same,Platelet aggregation remaining after TRAP (low = inhibition),TRAP-activated platelets; [3],2
same,Platelet aggregation remaining after TRAP (low = inhibition),TRAP-activated platelets; [4],12
"pal-KVGAAKR-FAKFEEERAR [B14p ITGA2b-JM2 U ITGB3-middle1, palmitylated chimeric peptide]","Activation, 5μM",resting platelets,2%
same,"Activation, 20μM",resting platelets,0%
same,Platelet aggregation remaining after TRAP (low = inhibition),TRAP-activated platelets; [1],71
same,Platelet aggregation remaining after TRAP (low = inhibition),TRAP-activated platelets; [2],3
"GIESMSQDTEVRSRVVGGS-tat [PTPN1-tat, PTPN1 peptide with C-terminal tat]",Activation,resting platelets,3%
same,"Aggregation before TRAP activation, donor a",resting platelets,3
same,"Aggregation before TRAP activation, donor b",resting platelets,4
same,"Aggregation before TRAP activation, donor c",resting platelets,5
same,"Aggregation before TRAP activation, donor d",resting platelets,4
same,"Aggregation before TRAP activation, donor e",resting platelets,3
same,Platelet aggregation remaining after TRAP (low = inhibition),TRAP-activated platelets; [5],77
same,"Aggregation after TRAP activation, donor a",TRAP-activated platelets; TRAP 4 μM,73
same,"Aggregation after TRAP activation, donor b",TRAP-activated platelets; TRAP 4 μM,76
same,"Aggregation after TRAP activation, donor c",TRAP-activated platelets; TRAP 4 μM,83
same,"Aggregation after TRAP activation, donor d",TRAP-activated platelets; TRAP 4 μM,75
same,"Aggregation after TRAP activation, donor e",TRAP-activated platelets; TRAP 4 μM,79
"tat-GRDKYKTLRQIRQGNTKQRIDEFESM [tat-MSN, tat peptide from MSN]",Activation,resting platelets,3%
same,"Aggregation before TRAP activation, donor h",resting platelets,3
same,"Aggregation before TRAP activation, donor i",resting platelets,3
same,"Aggregation before TRAP activation, donor j",resting platelets,4
same,Platelet aggregation remaining after TRAP (low = inhibition),TRAP-activated platelets; [5],73
same,"Aggregation after TRAP activation, donor h",TRAP-activated platelets; TRAP 4 μM,76
same,"Aggregation after TRAP activation, donor i",TRAP-activated platelets; TRAP 4 μM,68
same,"Aggregation after TRAP activation, donor j",TRAP-activated platelets; TRAP 4 μM,75
pal-KVGAAKR [pal-ITGA2bJM2],"Activation, 5μM",resting platelets,1%
same,"Activation, 20μM",resting platelets,1%
same,Platelet aggregation remaining after TRAP (low = inhibition),TRAP-activated platelets; [1],28
same,Platelet aggregation remaining after TRAP (low = inhibition),TRAP-activated platelets; [2],3
pal-WEQLLTTIARTINEVENQI [B3p ACTN1-VBS],"Activation, 5μM",resting platelets,2%
same,"Activation, 20μM",resting platelets,1%
same,Platelet aggregation remaining after TRAP (low = inhibition),TRAP-activated platelets; [1],76
same,Platelet aggregation remaining after TRAP (low = inhibition),TRAP-activated platelets; [2],73
"tat-AGAKLRKVSKQE-(NH2) [tat-VASP, tat peptide from VASP]",Activation,resting platelets,3%
same,"Aggregation before TRAP activation, donor h",resting platelets,3
same,"Aggregation before TRAP activation, donor i",resting platelets,3
same,"Aggregation before TRAP activation, donor j",resting platelets,3
same,Platelet aggregation remaining after TRAP (low = inhibition),TRAP-activated platelets; [5],74
same,"Aggregation after TRAP activation, donor h",TRAP-activated platelets; TRAP 4 μM,75
same,"Aggregation after TRAP activation, donor i",TRAP-activated platelets; TRAP 4 μM,71
same,"Aggregation after TRAP activation, donor j",TRAP-activated platelets; TRAP 4 μM,76
"KLSQLTSLLSSIE-tat [INPP5D-tat, INPP5D peptide with C-terminal tat]",Activation,resting platelets,4%
same,"Aggregation before TRAP activation, donor a",resting platelets,4
same,"Aggregation before TRAP activation, donor b",resting platelets,8
same,"Aggregation before TRAP activation, donor c",resting platelets,2
same,"Aggregation before TRAP activation, donor d",resting platelets,3
same,"Aggregation before TRAP activation, donor e",resting platelets,4
same,Platelet aggregation remaining after TRAP (low = inhibition),TRAP-activated platelets; [5],74
same,"Aggregation after TRAP activation, donor a",TRAP-activated platelets; TRAP 4 μM,70
same,"Aggregation after TRAP activation, donor b",TRAP-activated platelets; TRAP 4 μM,77
same,"Aggregation after TRAP activation, donor c",TRAP-activated platelets; TRAP 4 μM,76
same,"Aggregation after TRAP activation, donor d",TRAP-activated platelets; TRAP 4 μM,75
same,"Aggregation after TRAP activation, donor e",TRAP-activated platelets; TRAP 4 μM,73
"pal-NNPLYKEA-(NH2) [pal-ITGB3_middle2, N-terminally palmitylated ITGB3 peptide NNPLYKEA]",Activation,resting platelets,1%
same,"Aggregation before TRAP activation, donor h",resting platelets,2
same,"Aggregation before TRAP activation, donor i",resting platelets,2
same,"Aggregation before TRAP activation, donor j",resting platelets,1
same,Platelet aggregation remaining after TRAP (low = inhibition),TRAP-activated platelets; [5],74
same,"Aggregation after TRAP activation, donor h",TRAP-activated platelets; TRAP 4 μM,74
same,"Aggregation after TRAP activation, donor i",TRAP-activated platelets; TRAP 4 μM,71
same,"Aggregation after TRAP activation, donor j",TRAP-activated platelets; TRAP 4 μM,78
"pal-KVGAAKR-LGKKPIYKK [B19p ITGA2b-JM2 U SDC4-middle, palmitylated chimeric peptide]","Activation, 5μM",resting platelets,2%
same,"Activation, 20μM",resting platelets,3%
same,Platelet aggregation remaining after TRAP (low = inhibition),TRAP-activated platelets; [1],66
same,Platelet aggregation remaining after TRAP (low = inhibition),TRAP-activated platelets; [2],6
"pal-KVGAAKR-TLELDRLMASLS [B21p ITGA2b-JM2 U TGFB1I1-LD, palmitylated chimeric peptide]","Activation, 5μM",resting platelets,2%
same,"Activation, 20μM",resting platelets,1%
same,Platelet aggregation remaining after TRAP (low = inhibition),TRAP-activated platelets; [1],70
same,Platelet aggregation remaining after TRAP (low = inhibition),TRAP-activated platelets; [2],28
"pal-TLELDRLMASLS [B23p TGFB1I1-LD, palmitylated TGFB1I1 LD peptide]","Activation, 5μM",resting platelets,2%
same,"Activation, 20μM",resting platelets,3%
same,Platelet aggregation remaining after TRAP (low = inhibition),TRAP-activated platelets; [1],73
same,Platelet aggregation remaining after TRAP (low = inhibition),TRAP-activated platelets; [2],70
"pal-KVGFFKR-FAKFEEERAR [B15p ITGA2b-JM U ITGB3-middle1, palmitylated chimeric peptide]","Activation, 5μM",resting platelets,2%
same,"Activation, 20μM",resting platelets,4%
same,Platelet aggregation remaining after TRAP (low = inhibition),TRAP-activated platelets; [1],72
same,Platelet aggregation remaining after TRAP (low = inhibition),TRAP-activated platelets; [2],71
"pal-KVGFFKR-WEQLLTTIARTINEVENQI [B12p ITGA2b-JM U ACTN1-VBS, palmitylated chimeric peptide]","Activation, 5μM",resting platelets,1%
same,"Activation, 20μM",resting platelets,7%
same,Platelet aggregation remaining after TRAP (low = inhibition),TRAP-activated platelets; [1],74
same,Platelet aggregation remaining after TRAP (low = inhibition),TRAP-activated platelets; [2],66
"Pal-RMKKKDEGSYD-LGKKPIYKK [pal-SDC4-JM U SDC4-middle, palmitylated chimeric peptide of SDC4 juxtamembrane and middle regions]","Activation, 5μM",resting platelets,2%
same,"Activation, 20μM",resting platelets,4%
same,"Activation, donor 14 06 13",resting platelets,0%
same,"Activation, donor 18_06_13",resting platelets,2
same,"Activation, donor 20_06_13",resting platelets,1
same,"Activation, donor 20 08 13",resting platelets,6%
same,"Activation, donor 22_08_13_DONOR1",resting platelets,6
same,"Activation, donor 22_08_13_DONOR2",resting platelets,7
same,Aggregation (inhibition effects of syndecan-derived peptides),"TRAP-activated platelets; S2 Table A, peptide 20 μM, TRAP 4 μM, mean, n=6",19
same,Platelet aggregation remaining after TRAP (low = inhibition),TRAP-activated platelets; [1],61
same,Platelet aggregation remaining after TRAP (low = inhibition),TRAP-activated platelets; [2],19
same,"Inhibition, donor 14_06_13","TRAP-activated platelets; peptide 20 μM, TRAP 4 μM",26
same,"Inhibition, donor 18_06_13","TRAP-activated platelets; peptide 20 μM, TRAP 4 μM",9
same,"Inhibition, donor 20_06_13","TRAP-activated platelets; peptide 20 μM, TRAP 4 μM",47
same,"Inhibition, donor 20_08_13","TRAP-activated platelets; peptide 20 μM, TRAP 4 μM",12
same,Platelet aggregation remaining after TRAP (low = inhibition),TRAP-activated platelets; [3],8
same,Platelet aggregation remaining after TRAP (low = inhibition),TRAP-activated platelets; [4],14

# Reference: publication PMC6349357, “Computational and experimental analysis of bioactive peptide linear motifs in the integrin adhesome” (PLoS ONE, 2019)
